Results published in ChEMBL document CHEMBL5729128, “Phenyl and pyridinyl substituted imidazoles as modulators of RORγT” (2022).

Target: T1, Nuclear receptor ROR-gamma (Homo sapiens, UniProt P51449)
T1 sequence (P51449 whole entry): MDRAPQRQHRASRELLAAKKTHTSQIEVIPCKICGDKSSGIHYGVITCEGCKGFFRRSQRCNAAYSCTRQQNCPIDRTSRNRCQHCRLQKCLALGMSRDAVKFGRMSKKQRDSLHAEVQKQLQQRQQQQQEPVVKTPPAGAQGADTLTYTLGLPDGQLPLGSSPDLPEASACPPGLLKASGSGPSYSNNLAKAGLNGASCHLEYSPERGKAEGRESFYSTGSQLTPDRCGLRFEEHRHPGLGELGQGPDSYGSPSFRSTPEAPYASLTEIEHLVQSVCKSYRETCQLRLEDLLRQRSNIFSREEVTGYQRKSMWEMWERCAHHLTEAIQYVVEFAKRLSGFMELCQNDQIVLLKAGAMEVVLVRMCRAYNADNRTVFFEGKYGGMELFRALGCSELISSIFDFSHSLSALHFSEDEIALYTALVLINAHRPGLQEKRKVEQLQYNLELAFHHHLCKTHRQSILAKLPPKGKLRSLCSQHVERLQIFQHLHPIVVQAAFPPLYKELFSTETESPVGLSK
Assay: Fluorescence Based Assay: ThermoFluor is a fluorescence based assay that estimates ligand binding affinities by measuring the effect of a ligand on protein thermal stability (Pantoliano, M. W., Petrella, E. C., Kwasnoski, J. D., Lobanov, V. S., Myslik, J., Graf, E., Carver, T., Asel, E., Springer, B. A., Lane, P., and Salemme, F. R. (2001) High-density miniaturized thermal shift assays as a general strategy for drug discovery. J Biomol Screen 6, 429-40, and Matulis, D., Kranz, J. K., Salemme, F. R., and Todd, M. J. (2005) Thermodynamic stability of carbonic anhydrase: measurements of binding affinity and stoichiometry using ThermoFluor. Biochemistry 44, 5258-66). This approach is applicable to a wide variety of systems, and rigorous in theoretical interpretation through quantitation of equilibrium binding constants (KD).

Kd | Structure (SMILES)
23 nM | CCc1nc(C(=O)NC[C@]2(O)CC[C@@H](S(C)(=O)=O)CC2)c(C)n1-c1ncc(CC(C)(C)C(F)(F)F)cc1OC(F)F
87 nM | CCc1nc(C(=O)NC[C@]2(O)CC[C@@H](S(C)(=O)=O)CC2)c(Cl)n1-c1ncc(CCCC(F)(F)F)cc1OC(F)F
15 nM | CCc1nc(C(=O)NC[C@H]2CC[C@H](S(C)(=O)=O)CC2)c(Cl)n1-c1ncc(CCCC(F)(F)F)cc1OC(F)F
